The structures appear in SMILES notation.

Here are results for 3 molecules from article PMC11944477, “Isolation of Allosteric Tryptase Inhibitor from Methanol Extract of Rhubarb and Enhancement of Its Tryptase Inhibitory Activity by Compounds That Were Screened by In Silico Screening” (Molecules, 2025).

Data set [1] addresses T1, Tryptase from a human lung (Homo sapiens, UniProt P20231).
T1 construct: Tryptase from a human lung was purchased from Sigma-Aldrich; purchased Sigma-Aldrich; host or cells: human lung tissue
Description: Measurement of inhibitory activity against tryptase (chromogenic substrate, absorbance at 415 nm). The format is biochemical. Particulars: for IC50: inhibitor alone, 30 min preincubation, mean ± SE (n = 3). Here is the method: (§1) Tryptase from a human lung was purchased from Sigma-Aldrich (St. Louis, MO, USA). The activity of tryptase was measured in 100 mM Tris-HCl buffer, pH 8.0, 100 mM glycerol, 0.02 mg/mL heparin sodium salt and 167 µM N-(p-Tosyl)-Gly-Pro-Lys 4-nitroanilide acetate salt (Sigma-Aldrich) as a substrate. Prior to addition of the substrate, the inhibitor was preincubated with the enzyme for 30 min at room temperature to allow the establishment of the enzyme–inhibitor complex. The substrate was then added, and after incubation for 30 min at 37 °C, the enzyme activity was measured from the increase in absorbance at 415 nm. The assays were performed using a 384-well microplate (CELLSTAR 384-well 781182, Greiner Bio-One, Kremsmünster, Austria) and absorbance was measured using a Powerscan 4 plate reader (DS pharma biomedical, Osaka, Japan). The inhibition ratio was calculated using the following equation: inhibition ratio %=1−AE+S+I−AS−AI+Ablank/AE+S−AS×100
A(x): absorbance intensity (415 nm); E: enzyme; S: substrate; I: inhibitor; blank: buffer.
(§2) The inhibitory activity against tryptase and the trypsin of leupeptin and PB8GG’ were measured at 0.1–100 µM, along with that of ellagitannins (carpinin B or carpinin E) isolated by our group at 20–50 µM. The inhibitory activity of a combination of various concentrations of PB8GG’ and 50 µM ellagitannins was also assayed.
(§3) Drawing curves of the inhibition and calculation of IC50 were performed by GraphPad Prism (Version 9.5.1).

Data set [2] addresses T2, Trypsin from a hog pancreas (Sus scrofa, UniProt P00761).
T2 construct: Trypsin from a hog pancreas was purchased from Nacalai Tesque; purchased Nacalai Tesque; host or cells: hog pancreas
The data set is described as follows: Measurement of inhibitory activity against trypsin (Bz-L-Arg-pNA substrate, absorbance at 415 nm). Format: biochemical. As to the method: Trypsin from a hog pancreas was purchased from Nacalai Tesque, Kyoto, Japan. The activity of trypsin was measured in 200 mM Tris-HCl buffer, pH 7.8, 20 mM CaCl2 and 385 µM Benzoyl-L-arginine p-nitroanilide monohydrochloride (Bz-L-Arg-pNA·HCl) (Peptide Institute, Osaka, Japan) as a substrate. Prior to addition of the substrate, the inhibitor was preincubated with the enzyme for 10 min at room temperature to allow the establishment of the enzyme–inhibitor complex. The substrate was then added, and after incubation for 60 min at 37 °C, the enzyme activity was measured from the increase in absorbance at 415 nm. The assays were performed using a 384-well microplate and absorbance was measured using a Powerscan 4 plate reader.
as §2, §3

The subject of data set [3] is Tryptase from a human lung. Description: Kinetic analysis of tryptase inhibition (Lineweaver-Burk plot, Morrison's formula). Format: biochemical. Here is the method:
as §1
Ki^app was calculated using the Morrison’s formula with GraphPad Prism. The mean value of Km from the kinetic analysis (described in next Section 4.5) was substituted as a constant in the formula.
For kinetic studies of tryptase, inhibition assays were carried out as described in the preceding paragraph. […] The kinetic parameters were calculated by curve fitting using GraphPad Prism.

For another data set, the system named is asthma patients. Details: method as in PMID 31371445, PMID 10197050. Particulars: clinical trial for asthma, abandoned; cited from earlier work.

T1 sequence (P20231 31-275): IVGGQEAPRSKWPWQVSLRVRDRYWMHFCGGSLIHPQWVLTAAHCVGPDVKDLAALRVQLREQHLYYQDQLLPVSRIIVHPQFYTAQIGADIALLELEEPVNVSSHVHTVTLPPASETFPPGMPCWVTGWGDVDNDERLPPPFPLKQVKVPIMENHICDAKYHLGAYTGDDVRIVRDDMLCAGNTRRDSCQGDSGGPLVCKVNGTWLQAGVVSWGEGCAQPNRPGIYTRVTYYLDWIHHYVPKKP
T2 sequence (P00761 9-231): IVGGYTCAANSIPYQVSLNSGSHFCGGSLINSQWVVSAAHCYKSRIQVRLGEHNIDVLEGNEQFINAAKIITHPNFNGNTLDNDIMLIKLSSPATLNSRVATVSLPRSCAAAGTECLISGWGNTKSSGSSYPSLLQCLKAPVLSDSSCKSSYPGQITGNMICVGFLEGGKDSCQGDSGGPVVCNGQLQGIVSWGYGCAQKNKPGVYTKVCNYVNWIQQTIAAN

Take `O=C(O[C@@H]1Cc2c(cc(O)c(C3c4c(O)cc(O)cc4O[C@H](c4ccc(O)c(O)c4)[C@H]3OC(=O)c3cc(O)c(O)c(O)c3)c2O)O[C@@H]1c1ccc(O)c(O)c1)c1cc(O)c(O)c(O)c1` (stereo partly drawn) [PB8GG’, procyanidin B8 3,3′-di-O-gallate]: the “inhibition of tryptase activity” value in data set [1] (at 5 μM) is “clearly inhibited”; in data set [1] (at the dose of 1–3 μM), “very weakly inhibited”. In addition, the half-inhibitory concentration (IC50) in data set [1] is 7.78 ± 0.17 µM. In data set [2] (tested at 0.1–100 µM), the “inhibitory activity against trypsin” value was “little inhibitory activity”. For the same molecule, the “mode of inhibition of tryptase” value in data set [3] (Lineweaver–Burk plot) is reported as “mixed-type non-competitive”. For the same molecule, the Ki in data set [3] (Morrison's formula, GraphPad Prism, read-out: inhibition constant Ki app) was found to be 5.02 ± 0.99 µM.
Take `NC(=O)[C@@H]1CCCN1C(=O)[C@H](CCCN=C(N)N)NC(=O)c1ccc2ccccc2c1O` [APC-366]: the “adverse effect in treated patients” value in the data set with asthma patients was “caused bronchospasms”.
In the case of `CC(=O)N[C@@H](CC(C)C)C(=O)N[C@@H](CC(C)C)C(=O)N[C@H](C=O)CCCNC(=N)N` [leupeptin, reference compound], the IC50 in data set [1] worked out at 14.9 ± 1.25 µM; in data set [2] (10 min preincubation, mean ± SE (n = 3)), 8.4 ± 0.31 µM.

The term IC50 denotes the concentration that inhibits the measured activity by half.
